Series [1] has as its system Geranium. As to the kind of experiment: Growth promotion versus conventionally cultured and single-additive controls. The series is classed as in vivo.
Series [2] deals with Coleus. Described as above. Type of series: in vivo.
Series [3] has as its system New Guinea Impatiens. Described as above. Type of series: in vivo.
Another series has as its system Cabbage. As to the kind of experiment: Effective root application doses. The conditions noted are these: 10 ml per plant. The series is classed as in vivo. The protocol: (§1) The following are exemplary ranges of effective root application doses based on 10 ml per plant.
For series [4], the system named is Coleus. As to the kind of experiment: Effective root application doses. The series is classed as in vivo. The conditions noted are these: 10 ml per plant. The procedure: as §1
Series [5] deals with Geranium. As to the kind of experiment: Effective root application doses. Type of series: in vivo. The following applies: 10 ml per plant. The procedure: as §1
The test system of the next series is Corn. Nature of the series: Effective foliar application doses. Type of series: in vivo. The following applies: 1 to 4 ml per plant. The procedure:
(§2) The following are exemplary ranges of effective foliar application doses based on 1 to 4 ml per plant.

Series [6] relates to New Guinea Impatiens. As to the kind of experiment: Effective foliar application doses. The series is classed as in vivo. The conditions noted are these: 1 to 4 ml per plant. The procedure:
as §2

Another series concerns plants. The conditions noted are these: conventional conditions of plant culture, especially under acidic conditions; cited from earlier work.

The values below come from patent US6358293B1, “Methods for rendering high concentrations of manganese safe for plant growth and formulations for same” (The Hampshire Chemical Corporation, priority 1999, dated 2002).

For the compound `CO[C@H]1OC(CO)[C@H](O)[C@@H](O)[C@@H]1O` (some centres unmarked) [MeG, methyl glucoside], the “effect of additive on plant growth” value with Geranium [1], in the series on Coleus [2] and in the series on New Guinea Impatiens [3] was “retarded growth” each time. For the same compound, the “effective root application dose, MeG” value lay within 10 to 30 mM in the series with Cabbage (MeG applied with Mn), 5 to 50 mM in the series with Coleus [4] (MeG applied with Mn) and 10 to 100 mM in the series on Geranium [5] (MeG applied with Mn). For the same compound, the results for the “effective foliar application dose, MeG” value in the series on Corn (MeG applied with Mn) and in the series with New Guinea Impatiens [6] (MeG applied with Mn) were 5 to 25 mM and 200 to 500 mM, respectively.
As to `[Mn+2]` [Mn, manganese], the “effect of additive on plant growth” value with Geranium [1], in the series on Coleus [2] and in the series with New Guinea Impatiens [3] was “phytotoxic” throughout. The “effective root application dose, Mn” value in the series with Cabbage (Mn applied with MeG) fell in the range of 2 to 15 ppm; in the series with Coleus [4] (Mn applied with MeG), 2 to 7 ppm; with Geranium [5] (Mn applied with MeG) it was 2 to 15 ppm. The “effective foliar application dose, Mn” value in the series on Corn (Mn applied with MeG) and in the series with New Guinea Impatiens [6] (Mn applied with MeG) was 10 to 25 ppm each time. The “concentration at which manganese is phytotoxic to plants” value in the series with plants is “greater than 500 ppb”.
